Test results as given in PubChem BioAssay (NCI).
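48-hour exposure; five concentrations; linearly interpolated endpoints. TGI denotes the concentration required for complete inhibition of growth.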

Key:
Assay in all cases: NCI anticancer screen, dose series, 48 h
SF-295 CNS = tested on: SF-295 CNS
SK-OV-3 ovarian = tested on: SK-OV-3 ovarian
PC-3 prostate = tested on: PC-3 prostate
UACC-257 melanoma = tested on: UACC-257 melanoma
HCT-15 colon = tested on: HCT-15 colon
MDA-N = tested on: MDA-N
NCI-H460 lung = tested on: NCI-H460 lung
SNB-75 CNS = tested on: SNB-75 CNS
BT-549 breast = tested on: BT-549 breast
HT29 colon = tested on: HT29 colon

Structure (SMILES) | TGI (SF-295 CNS) | TGI (SK-OV-3 ovarian) | TGI (PC-3 prostate) | TGI (UACC-257 melanoma) | TGI (HCT-15 colon) | TGI (MDA-N) | TGI (NCI-H460 lung) | TGI (SNB-75 CNS) | TGI (BT-549 breast) | TGI (HT29 colon)
COC(=O)c1ccc(C)cc1C1CN=NC12Cc1cc(C)ccc1C2=O (stereo not given) | > 77.2 µM | > 100 µM | 58.1 µM | > 94.2 µM | > 100 µM | 6.11 µM | > 65.4 µM | > 68.1 µM | > 85.7 µM | 15.2 µM
OCC1OC(n2cnc3c(SCc4ccccc4)ncnc32)C(O)C1O (stereo not given) | > 100 µM | > 100 µM | > 100 µM | > 100 µM | > 100 µM | > 100 µM | > 100 µM | > 100 µM | > 100 µM | > 100 µM
Nc1nc(Br)nc2ncn(C3CC(O)C(CO)O3)c12 (stereo not given) | > 100 µM | > 100 µM | > 100 µM | > 100 µM | > 100 µM | > 100 µM | > 100 µM | > 100 µM | > 100 µM | > 100 µM
CN1C(C)(C)CC(=O)C(Br)C1(C)C (stereo not given) | > 100 µM | > 100 µM | > 100 µM | > 100 µM | > 100 µM | > 100 µM | > 100 µM | > 100 µM | > 100 µM | > 100 µM
CC(=O)N=c1ccc2nc(N)nn(O)c-2c1 | > 100 µM | > 100 µM | > 100 µM | > 100 µM | > 100 µM | > 100 µM | > 100 µM | > 100 µM | > 100 µM | > 100 µM
COc1ccc(-n2c(Cn3nnc(-c4cccnc4)n3)nn(C3OC(COC(=O)c4ccccc4)C(OC(=O)c4ccccc4)C3OC(=O)c3ccccc3)c2=S)cc1 (stereo not given) | > 100 µM | > 100 µM | > 100 µM | > 100 µM | > 100 µM | > 100 µM | > 100 µM | > 100 µM | > 100 µM | > 100 µM
O=C(c1ccccc1)C(Nc1ccc2ccccc2c1)c1ccccc1 (stereo not given) | > 100 µM | > 100 µM | 98.7 µM | 48.2 µM | > 100 µM | > 100 µM | > 100 µM | > 71.9 µM | > 100 µM | > 100 µM
Cc1[nH]c2nc3c(ncn3COCCO)c(=O)n2c1C(c1ccccc1)(c1ccccc1)c1ccccc1 | 34.2 µM | 32.8 µM | 26 µM | 27.4 µM | > 100 µM | 29.2 µM | 30.9 µM | 26.7 µM | 2.22 µM | 24.2 µM
CCCCCCCCCCCCCCCC(=O)Nc1ccn(C2CCC(COP(=O)(O)OCC3OC(n4cc(F)c(=O)[nH]c4=O)CC3OC(C)=O)O2)c(=O)n1 (stereo not given) | 29.6 µM | > 90.2 µM | 56.8 µM | 53.6 µM | > 100 µM | 50.4 µM | > 100 µM | > 67.1 µM | 58.4 µM | 32.4 µM
O=C1Nc2ccccc2/C1=C\c1c(-c2ccccc2)nc2n1CCS2 | 48.6 µM | 67.1 µM | 48.3 µM | 45.9 µM | 52.3 µM | 65 µM | 41.9 µM | 42.8 µM | 43.7 µM | 39.9 µM
c1ccc2nn(C3CCCO3)nc2c1 (stereo not given) | > 100 µM | > 100 µM | > 100 µM | > 100 µM | > 100 µM | > 100 µM | > 100 µM | > 100 µM | > 100 µM | > 100 µM
Cn1nc(-c2ccccc2)c2c(-c3ccccc3)c3cc(Cl)ccc3nc21 | > 100 µM | > 100 µM | > 100 µM | > 100 µM | > 22.9 µM | > 100 µM | > 100 µM | > 100 µM | > 100 µM | > 100 µM
CC1CCC2CC1NC(=O)CCOCCC(=O)NC2(C)C (stereo not given) | > 100 µM | > 100 µM | > 100 µM | > 100 µM | > 100 µM | > 100 µM | > 100 µM | > 100 µM | > 100 µM | > 100 µM
O=C1CCN2C(=N1)Sc1ccccc12 | > 100 µM | > 100 µM | > 100 µM | > 100 µM | > 100 µM | > 100 µM | > 100 µM | > 100 µM | > 100 µM | > 100 µM
CC[C@@H]1CC[C@@H]2[C@H](CC[C@]3(C)[C@@H](OC(C)=O)CC[C@@H]23)[C@H]1C(=O)OC | 46.6 µM | > 100 µM | 67.3 µM | 54.3 µM | 49.5 µM | 41.4 µM | 51.6 µM | 69 µM | > 100 µM | 67.2 µM
COc1ccc2c(c1)-c1nc(=O)n(CCCN(C)C)c3ccc([N+](=O)[O-])c(c13)N2 | 20.8 µM | 17.3 µM | 20.9 µM | 6.85 µM | 8.55 µM | 19.2 µM | 15.1 µM | 8.51 µM | 16.8 µM | 12.2 µM

Structure (SMILES) | TGI (SF-295 CNS) | TGI (SK-OV-3 ovarian) | TGI (PC-3 prostate) | TGI (UACC-257 melanoma) | TGI (HCT-15 colon) | TGI (MDA-N) | TGI (NCI-H460 lung) | TGI (SNB-75 CNS) | TGI (BT-549 breast) | TGI (HT29 colon)
O=C1CCSc2nc(-c3ccc4c(c3)OCO4)nn21 | > 10 µM | > 10 µM | > 10 µM | > 10 µM | > 10 µM | > 10 µM | > 10 µM | > 10 µM | > 10 µM | > 10 µM
CCCn1c(=O)c2nn3c(=O)n(CCC)c(=O)c3nn2c1=O | > 100 µM | > 100 µM | > 100 µM | > 100 µM | > 100 µM | > 100 µM | > 100 µM | > 100 µM | > 100 µM | > 100 µM
Cc1ccc(S(=O)(=O)ON2C(=O)c3c(N)c(C#N)c(-c4ccccc4)c(-c4ccccc4)c3C2=O)cc1 | 92.8 µM | > 100 µM | 32.7 µM | 38 µM | 37.6 µM | 32.2 µM | > 100 µM | > 100 µM | 34.8 µM | 42.2 µM
COCC12CCC(OC)C34C5CC6(O)C(OC)C=C(C5C6OC(=O)c5ccccc5)C(C(OC)C13)C4N(C)C2 (stereo not given) | > 100 µM | > 100 µM | > 100 µM | > 100 µM | > 100 µM | > 100 µM | > 100 µM | > 100 µM | > 100 µM | > 100 µM
O=C(NCCc1ccccc1)c1cc(/C=C/c2cc(O)ccc2O)ccc1O | 35.2 µM | 26.4 µM | 11.4 µM | 8.57 µM | 7.42 µM | 9.81 µM | 24.6 µM | 13.7 µM | 3.7 µM | > 50 µM
O=C(/C=C/c1ccc(O)c(O)c1)NC(COC(=O)/C=C/c1ccc(O)c(O)c1)C(=O)O (stereo not given) | > 100 µM | > 100 µM | > 100 µM | > 100 µM | > 100 µM | > 100 µM | > 100 µM | > 100 µM | > 100 µM | > 100 µM
Cc1ccc(SCC(CF)OC(C)n2cnc3c(Cl)nc(N)nc32)cc1 (stereo not given) | > 100 µM | > 100 µM | > 100 µM | > 100 µM | > 100 µM | > 100 µM | > 100 µM | > 100 µM | > 100 µM | > 100 µM
CCCCCCCC(CC(=O)NC(CO)C(=O)NC(CO)CC(C)C)OC(=O)CC(CCCCCCC)OC(=O)CC(CCCCCCC)OC1OC(C)C(O)C(OC2OC(C)C(O)C(O)C2O)C1O (stereo not given) | 27.1 µM | 31.5 µM | 25.3 µM | 26.6 µM | 34.6 µM | 20.5 µM | 19.1 µM | 24.9 µM | 28.8 µM | 21.8 µM
Cc1c(-c2nc(N)c(C#N)c(N)c2C#N)c(=O)oc2ccccc12 | > 100 µM | > 100 µM | > 100 µM | > 100 µM | > 100 µM | > 100 µM | > 100 µM | > 100 µM | > 100 µM | > 100 µM
COC(=O)[C@]1(C)CCC[C@]2(C)[C@@H](CCC(=O)C(C)C)[C@]3(C=O)O[C@@H]3C[C@H]21 | > 100 µM | > 100 µM | > 100 µM | > 100 µM | > 100 µM | 75.1 µM | > 100 µM | 63.9 µM | 77.3 µM | > 100 µM
Cc1cc(C)c(S(=O)(=O)N(CCCN)OCCON(CCCN)S(=O)(=O)c2c(C)cc(C)cc2C)c(C)c1 | 67 µM | 24.8 µM | 4.02 µM | 36.5 µM | 70.5 µM | 8.22 µM | 17 µM | 12.6 µM | 66.2 µM | 40.4 µM
CC(CNC(=O)c1ccccc1)(CNC(=O)c1ccccc1)[N+](=O)[O-] | > 100 µM | > 100 µM | > 100 µM | > 100 µM | > 100 µM | > 100 µM | > 100 µM | > 100 µM | > 100 µM | > 100 µM
C(=N\NC1=NCCN1)/c1cccc2cc3ccncc3nc12 | 14.5 µM | 23.5 µM | 13.7 µM | 24.6 µM | 13.1 µM | 11 µM | 20.5 µM | 5.04 µM | 29.4 µM | 10.5 µM
C=C1CC(C)(COc2cc(=O)oc3ccccc23)OC1=O (stereo not given) | 30.6 µM | 22.5 µM | 17.5 µM | 6.1 µM | 13 µM | 16.3 µM | 27.5 µM | 21.3 µM | 7.89 µM | 13.3 µM
CCN(CC)C(=S)N/N=C/c1cc(OC)ccc1O | > 100 µM | > 100 µM | > 100 µM | > 100 µM | > 100 µM | > 100 µM | 14.3 µM | > 100 µM | > 100 µM | > 100 µM
